Experimental data from US20240425479A1, “HALO-SUBSTITUTED AMINO AZA-HETEROARYL COMPOUNDS AS INHIBITORS OF THE HAEMATOPOIETIC PROGENITOR KINASE 1 (HPK1)” (priority 2021, published 2024).

Target: T1, Recombinant (1-346) HPK1 (h) (Homo sapiens, UniProt Q92918)
T1 construct: Recombinant (1-346) HPK1 (h) is incubated with 8 mM MOPS pH 7.0
T1 sequence (Q92918 1-346): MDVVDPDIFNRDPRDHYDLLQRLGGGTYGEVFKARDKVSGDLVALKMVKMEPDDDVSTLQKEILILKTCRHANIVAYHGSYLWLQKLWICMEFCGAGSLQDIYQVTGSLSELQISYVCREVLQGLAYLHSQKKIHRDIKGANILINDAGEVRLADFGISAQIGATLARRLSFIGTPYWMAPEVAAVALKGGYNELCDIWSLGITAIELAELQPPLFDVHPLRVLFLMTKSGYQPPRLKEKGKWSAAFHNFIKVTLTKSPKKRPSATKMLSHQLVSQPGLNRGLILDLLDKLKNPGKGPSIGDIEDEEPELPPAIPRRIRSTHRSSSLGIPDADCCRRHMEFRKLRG
Experiment: HPK1 human STE kinase enzymatic radiometric assay
Type: biochemical
Conditions: read-out: HPK1 IC50 nM Range
Description: (a) HPK1 Human STE Kinase Enzymatic Radiometric Assay
A stock solution of 10 mM of test compound is prepared in DMSO. The compound plate was prepared by 3-fold and 9-point serial dilutions. Recombinant (1-346) HPK1 (h) is incubated with 8 mM MOPS pH 7.0, 0.2 mM EDTA, 0.33 mg/mL myelin basic protein, 10 mM MgAcetate and [gamma-33P]-ATP (specific activity and concentration as required). The reaction is initiated by the addition of the Mg/ATP mix. After incubation for 40 minutes at RT, the reaction is stopped by the addition of phosphoric acid to a concentration of 0.5%, 10 μL of the reaction is then spotted onto a P30 filtermat and washed four times for 4 minutes in 0.425% phosphoric acid and once in methanol prior to drying and scintillation counting. For more details of kinase assay protocols, see: Gao, Y. et. al.; Biochem J.451 (2): 313-328, 2013.

SMILES	IC50
Nc1nc(F)c(-c2ccc(C3CCOCC3)c([C@@H]3CCCN3)c2)nc1-c1cc2c(cc1F)C(=O)NCC2 [Example I-19, (S)-6-(3-amino-5-fluoro-6-(3-(pyrrolidin-2-yl)-4-(tetrahydro-2H-pyran-4-yl)phenyl)pyrazin-2-yl)-7-fluoro-3,4-dihydroisoquinolin-1(2H)-one]	0.1 to 10 nM
Nc1nc(F)c(-c2ccc(N3CCOCC3)cc2)nc1-c1cc2c(cc1F)C(=O)NCC2 [Example I-34, 6-(3-amino-5-fluoro-6-(4-morpholinophenyl)pyrazin-2-yl)-7-fluoro-3,4-dihydroisoquinolin-1(2H)-one]	0.1 to 10 nM
CN1CCN(c2ccc(-c3nc(-c4ccc5c(c4)CCNC5=O)c(N)nc3F)cc2)CC1 [Example I-41, 6-(3-amino-5-fluoro-6-(4-(4-methylpiperazin-1-yl)phenyl)pyrazin-2-yl)-3,4-dihydroisoquinolin-1(2H)-one]	0.1 to 10 nM
Cc1[nH]c(=O)c2ccc(-c3nc(-c4ccc(N5CCN(C(C)C)CC5)cc4)c(F)nc3N)cc2c1Cl [Example I-43, 6-(3-amino-5-fluoro-6-(4-(4-isopropylpiperazin-1-yl)phenyl)pyrazin-2-yl)-4-chloro-3-methylisoquinolin-1(2H)-one]	0.1 to 10 nM
Nc1nc(F)c(-c2ccc(N3CCN(C4COC4)CC3)cc2)nc1-c1cc2c(cc1F)C(=O)NCC2 [Example I-45, 6-(3-amino-5-fluoro-6-(4-(4-(oxetan-3-yl)piperazin-1-yl)phenyl)pyrazin-2-yl)-7-fluoro-3,4-dihydroisoquinolin-1(2H)-one]	11 to 100 nM
Nc1nc(F)c(-c2ccc(N3CCN(C4COC4)CC3)cc2)nc1-c1ccc2c(c1)CCNC2=O [Example I-46, 6-(3-amino-5-fluoro-6-(4-(4-(oxetan-3-yl)piperazin-1-yl)phenyl)pyrazin-2-yl)-3,4-dihydroisoquinolin-1(2H)-one]	0.1 to 10 nM
Nc1nc(F)c(-c2ccc(N3CCN(C4CCC4)CC3)cc2)nc1-c1cc(F)c2c(c1)CCNC2=O [Example I-47, 6-(3-amino-6-(4-(4-cyclobutylpiperazin-1-yl)phenyl)-5-fluoropyrazin-2-yl)-8-fluoro-3,4-dihydroisoquinolin-1(2H)-one]	0.1 to 10 nM
Nc1nc(F)c(-c2ccc(N3CCN(C4CCC4)CC3)cc2)nc1-c1ccc2c(c1)CCNC2=O [Example I-49, 6-(3-amino-6-(4-(4-cyclobutylpiperazin-1-yl)phenyl)-5-fluoropyrazin-2-yl)-3,4-dihydroisoquinolin-1(2H)-one]	0.1 to 10 nM
CC(C)N1CCN(c2ccc(-c3nc(-c4ccc5c(c4)CCNC5=O)c(N)nc3F)cc2)[C@H](C)C1 [Example I-50, (R)-6-(3-amino-5-fluoro-6-(4-(4-isopropyl-2-methylpiperazin-1-yl)phenyl)pyrazin-2-yl)-3,4-dihydroisoquinolin-1(2H)-one]	0.1 to 10 nM
CC(C)N1CCN(c2ccc(-c3nc(-c4cc5c(cc4F)C(=O)NCC5)c(N)nc3F)cc2)[C@H](C)C1 [Example I-51, (R)-6-(3-amino-5-fluoro-6-(4-(4-isopropyl-2-methylpiperazin-1-yl)phenyl)pyrazin-2-yl)-7-fluoro-3,4-dihydroisoquinolin-1(2H)-one]	0.1 to 10 nM
C[C@@H]1CN(C)CCN1c1ccc(-c2nc(-c3ccc4c(c3)CCNC4=O)c(N)nc2F)cc1 [Example I-52, (R)-6-(3-amino-6-(4-(2,4-dimethylpiperazin-1-yl)phenyl)-5-fluoropyrazin-2-yl)-3,4-dihydroisoquinolin-1(2H)-one]	0.1 to 10 nM
C[C@@H]1CN(C)CCN1c1ccc(-c2nc(-c3cc4c(cc3F)C(=O)NCC4)c(N)nc2F)cc1 [Example I-53, (R)-6-(3-amino-6-(4-(2,4-dimethylpiperazin-1-yl)phenyl)-5-fluoropyrazin-2-yl)-7-fluoro-3,4-dihydroisoquinolin-1(2H)-one]	0.1 to 10 nM
CN1CCN(c2ccc(-c3nc(-c4cc5c(cc4F)C(=O)NCC5)c(N)nc3F)cc2)CC1 [Example I-54, 6-(3-amino-5-fluoro-6-(4-(4-methylpiperazin-1-yl)phenyl)pyrazin-2-yl)-7-fluoro-3,4-dihydroisoquinolin-1(2H)-one]	0.1 to 10 nM
CCN1CCN(c2ccc(-c3nc(-c4ccc5c(c4)CCNC5=O)c(N)nc3F)cc2)CC1 [Example I-55, 6-(3-amino-6-(4-(4-ethylpiperazin-1-yl)phenyl)-5-fluoropyrazin-2-yl)-3,4-dihydroisoquinolin-1(2H)-one]	0.1 to 10 nM
CCN1CCN(c2ccc(-c3nc(-c4cc5c(cc4F)C(=O)NCC5)c(N)nc3F)cc2)CC1 [Example I-56, 6-(3-amino-6-(4-(4-ethylpiperazin-1-yl)phenyl)-5-fluoropyrazin-2-yl)-7-fluoro-3,4-dihydroisoquinolin-1(2H)-one]	0.1 to 10 nM
C[C@@H]1CN(c2ccc(-c3nc(-c4ccc5c(c4)CCNC5=O)c(N)nc3F)cc2)C[C@H](C)N1C [Example I-57, 6-(3-amino-5-fluoro-6-(4-((3R,5S)-3,4,5-trimethylpiperazin-1-yl)phenyl)pyrazin-2-yl)-3,4-dihydroisoquinolin-1(2H)-one]	0.1 to 10 nM
C[C@@H]1CN(c2ccc(-c3nc(-c4cc5c(cc4F)C(=O)NCC5)c(N)nc3F)cc2)C[C@H](C)N1C [Example I-58, 6-(3-amino-5-fluoro-6-(4-((3R,5S)-3,4,5-trimethylpiperazin-1-yl)phenyl)pyrazin-2-yl)-7-fluoro-3,4-dihydroisoquinolin-1(2H)-one]	0.1 to 10 nM
CN1CC2(CCN(c3ccc(-c4nc(-c5cc6c(cc5F)C(=O)NCC6)c(N)nc4F)cc3)CC2)C1 [Example I-61, 6-(3-amino-5-fluoro-6-(4-(2-methyl-2,7-diazaspiro[3.5]nonan-7-yl)phenyl)pyrazin-2-yl)-7-fluoro-3,4-dihydroisoquinolin-1(2H)-one]	0.1 to 10 nM
Cc1nc2cc(-c3nc(-c4ccc(N5CCN(C(C)C)CC5)cc4)c(F)nc3N)c(F)cc2c(=O)[nH]1 [Example I-63, 7-(3-amino-5-fluoro-6-(4-(4-isopropylpiperazin-1-yl)phenyl)pyrazin-2-yl)-6-fluoro-2-methylquinazolin-4(3H)-one]	0.1 to 10 nM
CN(C)Cc1cc(-c2nc(-c3cc4c(cc3F)C(=O)NCC4)c(N)nc2F)ccc1N1CCOCC1 [Example I-65, 6-(3-amino-6-(3-((dimethylamino)methyl)-4-morpholinophenyl)-5-fluoropyrazin-2-yl)-7-fluoro-3,4-dihydroisoquinolin-1(2H)-one]	0.1 to 10 nM
Nc1nc(F)c(-c2ccc(N3CCN(CCCC(F)F)CC3)cc2)nc1-c1ccc2c(c1)CCNC2=O [Example I-68, 6-(3-amino-6-(4-(4-(4,4-difluorobutyl)piperazin-1-yl)phenyl)-5-fluoropyrazin-2-yl)-3,4-dihydroisoquinolin-1(2H)-one]	0.1 to 10 nM
Nc1nc(F)c(-c2ccc(N3CCN(CCCC(F)F)CC3)cc2)nc1-c1cc2c(cc1F)C(=O)NCC2 [Example I-69, 6-(3-amino-6-(4-(4-(4,4-difluorobutyl)piperazin-1-yl)phenyl)-5-fluoropyrazin-2-yl)-7-fluoro-3,4-dihydroisoquinolin-1(2H)-one]	0.1 to 10 nM
Nc1nc(F)c(-c2ccc(N3CCN(CCCC(F)F)CC3)cc2)nc1-c1ccc2c(=O)[nH]ccc2c1 [Example I-70, 6-(3-amino-6-(4-(4-(4,4-difluorobutyl)piperazin-1-yl)phenyl)-5-fluoropyrazin-2-yl)isoquinolin-1(2H)-one]	0.1 to 10 nM
Cc1c[nH]c(=O)c2ccc(-c3nc(-c4ccc(N5CCN(CCCC(F)F)CC5)cc4)c(F)nc3N)cc12 [Example I-73, 6-(3-amino-6-(4-(4-(4,4-difluorobutyl)piperazin-1-yl)phenyl)-5-fluoropyrazin-2-yl)-4-methylisoquinolin-1(2H)-one]	0.1 to 10 nM
Cc1nc2cc(-c3nc(-c4ccc([C@]56C[C@H]5CN(C)C6)cc4)c(F)nc3N)ccc2c(=O)[nH]1 [Example I-74, 7-(3-amino-5-fluoro-6-(4-((1S,5R)-3-methyl-3-azabicyclo[3.1.0]hexan-1-yl)phenyl)pyrazin-2-yl)-2-methylquinazolin-4(3H)-one]	11 to 100 nM
Cc1c[nH]c(=O)c2ccc(-c3nc(-c4ccc([C@]56C[C@H]5CN(C)C6)cc4)c(F)nc3N)cc12 [Example I-75, 6-(3-amino-5-fluoro-6-(4-((1S,5R)-3-methyl-3-azabicyclo[3.1.0]hexan-1-yl)phenyl)pyrazin-2-yl)-4-methylisoquinolin-1(2H)-one]	11 to 100 nM
Cc1nc2cc(-c3nc(-c4ccc(N5CCN(C6CCC6)CC5)cc4)c(F)nc3N)ccc2c(=O)[nH]1 [Example I-76, 7-(3-amino-6-(4-(4-cyclobutylpiperazin-1-yl)phenyl)-5-fluoropyrazin-2-yl)-2-methylquinazolin-4(3H)-one]	11 to 100 nM
Cc1nc2cc(-c3nc(-c4ccc(N5CCOCC5)c(CN(C)C)c4)c(F)nc3N)ccc2c(=O)[nH]1 [Example I-77, 7-(3-amino-6-(3-((dimethylamino)methyl)-4-morpholinophenyl)-5-fluoropyrazin-2-yl)-2-methylquinazolin-4(3H)-one]	11 to 100 nM
